Laboratory results: patent US20110028552A1, “MEXILETINE AMINO ACID AND PEPTIDE PRODRUGS AND USES THEREOF” (priority 2009, published 2011)
Where “and” joins values, the source holds several entries; their conditions need not be identical. Identical values can stand only once. Counter-ions that a name gives are not always drawn. Like-named read-outs stand apart in the source and are kept apart here.

How the values were obtained:
hNav 1.1 channel = target: T1, hNav 1.1 channel (Homo sapiens, UniProt P35498); assay: Block of cloned hNav1.1 channel in CHO cells (IonWorks Quattro); type: cell-based; settings: for IC50 fold above the parent: relative to mexiletine
T1 construct: expressed in transfected cells
Protocol: Data was corrected for leak current.
The tonic block was calculated as:
% Block (Tonic)=(1−ITP1,TA/ITP1,Control)×100%,
where ITP1, Control and ITP1, TA are the inward peak Na^+ currents elicited by the TP1 in control and in the presence of a test article, respectively. 10 Hz Block—the frequency-dependent block at stimulation frequency 10 Hz was calculated as: […]
where ITP11, Control and ITP11, TA are the inward peak Na^+ currents elicited by the TP11 in control and in the presence of a test article, respectively. The inactivation state block is defined as the decrease in test pulse (TP12) current amplitude due to the conditioning depolarizing pulse (TP11). The inactivation state block was calculated as:
% Block (inactivation state)=(1−(ITP12,TA/ITP12,TA)×100%,
where ITP12, Control and ITP12, TA are the inward peak Na^+ currents elicited by the TP12 in control and in the presence of a test article, respectively. Concentration-response data for the blocks were fit to an equation of the following form: […]

[1] = Systemic availability of mexiletine in the dog after oral prodrug dosing; type: in vivo, Dog (Beagle); settings: 1 mg/kg mexiletine free base
Protocol: Test substances (i.e., mexiletine, and various mexiletine amino acid prodrugs) were administered by oral gavage to groups of five dogs. The characteristics of the test animals are set out in Table 6.
Blood samples were taken at various times after administration and submitted to analysis for parent drug using a validated LC-MS-MS assay. Pharmacokinetic parameters derived from the plasma analytical were determined using Win Nonlin.

[2] = test system: rabbit stomach smooth muscle; assay: EFS-stimulated contractions of isolated rabbit stomach smooth muscle; settings: rabbit stomach antrum strips; EFS 14 Hz
[3] = Systemic availability of mexiletine in the cynomolgus monkey after oral prodrug dosing; type: in vivo; settings: 1 mg/kg mexiletine free base
[4] = mexiletine from prodrug vs parent
Protocol: Blood samples were taken at various times after administration and submitted to analysis for the prodrug and parent drug using a validated LC-MS-MS assay. Pharmacokinetic parameters derived from the plasma analytical were determined using Win Nonlin.

sodium channel = settings: De Bellis et al. (2006); cited from earlier work
[5] = cited from earlier work
[6] = cited from earlier work; remark: listed apart in the source
[7] = hNav1.1 in CHO cells, frequency-dependent block at 10 Hz (TP11), read-out: IC50 10 Hz block
[8] = hNav1.1 in CHO cells, inactivation state block (TP12), read-out: IC50 Inactivated state
[9] = hNav1.1 in CHO cells, tonic block (TP1), read-out: IC50 Tonic block
[10] = hNav1.1, 10 Hz block, rounded values, read-out: IC50 values (with the 10 Hz block)

## Cc1cccc(C)c1OCC(C)NC(=O)C(N)C(C)O (centres unmarked) [Mexiletine threonine amide]
hNav 1.1 channel; [7]
  IC50: 41.4 µM
hNav 1.1 channel; [8]
  IC50: 11.6 µM
hNav 1.1 channel; [9]
  IC50: 234 µM

## Cc1cccc(C)c1OCC(C)NC(=O)C(N)Cc1c[nH]cn1 (centres unmarked) [Mexiletine histidine amide]
hNav 1.1 channel; [7]
  IC50: 42.1 µM
hNav 1.1 channel; [8]
  IC50: 21.2 µM
hNav 1.1 channel; [9]
  IC50: 79.5 µM

## Cc1cccc(C)c1OCC(C)NC(=O)C1CCCCN1 (centres unmarked) [Mexiletine pipecolic acid amide]
hNav 1.1 channel; [7]
  IC50: 6 µM
hNav 1.1 channel; [8]
  IC50: 2.7 µM
hNav 1.1 channel; [9]
  IC50: 26 µM

## Cc1cccc(C)c1OCC(C)NC(=O)c1ccncc1 (centres unmarked) [Mexiletine isonicotinic acid amide]
hNav 1.1 channel; [7]
  IC50: 439 µM
hNav 1.1 channel; [8]
  IC50: 130 µM
hNav 1.1 channel; [9]
  IC50: 818 µM

## Cc1cccc(C)c1OCC(C)NC(=O)[C@@H](N)CC[S+](C)C.Cl.[Cl-] (stereo partly drawn) [(S)-2-Amino-N-[2-(2,6-dimethyl-phenoxy)-1-methyl-ethyl]-4-(dimethyl-λ^4-sulfanyl chloride)-butyramide hydrochloride]
hNav 1.1 channel; hNav1.1
  IC50 fold above the parent: ~20 fold
hNav 1.1 channel; [7]
  IC50: > 1000 µM
hNav 1.1 channel; [8]
  IC50: > 1000 µM
hNav 1.1 channel; [9]
  IC50: > 1000 µM

## Cc1cccc(C)c1OCC(C)NC(=O)[C@@H](N)C(C)C.Cl (some centres unmarked) [Mexiletine valine amide]
[1]
  F (abs): 35 ± 6%

## Cc1cccc(C)c1OCC(C)NC(=O)[C@@H](N)Cc1ccccc1.Cl (some centres unmarked) [Mexiletine phenylalanine amide]
[1]
  F (abs): 38 ± 6%

## Cc1cccc(C)c1OCC(C)NC(=O)C1CC(O)CN1 (centres unmarked) [Mexiletine 4-hydroxyproline amide]
hNav 1.1 channel; [7]
  IC50: 37 µM
hNav 1.1 channel; [8]
  IC50: 15.5 µM
hNav 1.1 channel; [9]
  IC50: 147 µM

## Cc1cccc(C)c1OCC(C)NC(=O)[C@@H](NC(=O)[C@@H](N)C(C)C)C(C)C.Cl (some centres unmarked) [Mexiletine valine-valine amide]
[1]
  F (abs): 50 ± 9%

## Cc1cccc(C)c1OCC(C)NC(=O)[C@@H](N)CCCCN (mixture of isomers) [Mexiletine lysine amide, 2,6-diamino-hexanoic acid [2-(2,6-dimethylphenoxy)-1-methylethyl]-amide ditrifluoroacetate]
[2]
  calculated ED50, attenuation of EFS induced contractions: 21.83 µM

## Cc1cccc(C)c1OCC(C)NC(=O)C(N)CO (centres unmarked) [Mexiletine serine amide]
hNav 1.1 channel; [7]
  IC50: 50.3 µM
hNav 1.1 channel; [8]
  IC50: 14.1 µM
hNav 1.1 channel; [9]
  IC50: 239 µM

## Cc1cccc(C)c1OCC(C)NC(=O)CN.O=C(O)C(F)(F)F (racemic) [(rac)-mexiletine-glycine trifluoroacetate]
hNav 1.1 channel; [7]
  IC50: 107 µM
hNav 1.1 channel; [8]
  IC50: 21.2 µM
hNav 1.1 channel; [9]
  IC50: 398 µM
[1]
  F (abs): 57 ± 6%
[3]
  F (abs): 41.5 ± 4.11%
[4]; individual ferrets, oral 10 mg free base equivalents/kg
  Frel: 67% and 107% and 103% and 77% and 108% and 101%
[4]; mean of six ferrets
  Frel, Mean: 94%
ferret; % of that seen after mexiletine itself
  duration of vomiting relative to mexiletine: less than 30%
ferret; % of those observed after dosing the parent drug
  average number of vomits relative to parent drug: less than 30%
[2]
  calculated ED50, attenuation of EFS induced contractions: 9.16 µM

## Cc1cccc(C)c1OCC(C)NC(=O)CCN (stereo not drawn) [Mexiletine β alanine amide]
hNav 1.1 channel; [7]
  IC50: 59.5 µM
hNav 1.1 channel; [8]
  IC50: 23.5 µM
hNav 1.1 channel; [9]
  IC50: 245 µM

## Cc1cccc(C)c1OCC(C)NC(=O)CN(C)C (centres unmarked) [Mexiletine dimethylglycine amide]
hNav 1.1 channel; [7]
  IC50: 10.3 µM
hNav 1.1 channel; [8]
  IC50: 3.2 µM
hNav 1.1 channel; [9]
  IC50: 30.5 µM

## Cc1cccc(C)c1OCC(C)NC(=O)C(N)CN (stereo not drawn) [Mexiletine β amino alanine amide]
hNav 1.1 channel; [7]
  IC50: 180 µM
hNav 1.1 channel; [8]
  IC50: 61.8 µM
hNav 1.1 channel; [9]
  IC50: 478 µM

## CNCC(=O)NC(C)COc1c(C)cccc1C (centres unmarked) [Mexiletine sarcosine amide]
hNav 1.1 channel; [7]
  IC50: 38.9 µM
hNav 1.1 channel; [8]
  IC50: 6.3 µM
hNav 1.1 channel; [9]
  IC50: 186 µM

## Para-hydroxymexiletine
Sodium channel
  sodium channel inhibitory activity retained vs parent molecule: around 25%

## Cc1cccc(C)c1OCC(C)NC(=O)C(N)CCCNC(N)=O (centres unmarked) [Mexiletine citrulline amide]
hNav 1.1 channel; [7]
  IC50: 359 µM
hNav 1.1 channel; [8]
  IC50: 180 µM
hNav 1.1 channel; [9]
  IC50: 491 µM

## Cc1cccc(C)c1OCC(C)NC(=O)c1cccnc1 (centres unmarked) [Mexiletine nicotinic acid amide]
hNav 1.1 channel; [7]
  IC50: 350 µM
hNav 1.1 channel; [8]
  IC50: 61.2 µM
hNav 1.1 channel; [9]
  IC50: 495 µM

## Cc1cccc(C)c1OCC(C)NC(=O)[C@@H](N)CCCCNC(=N)N (stereo partly drawn) [Mexiletine homoarginine amide, (S)-2-Amino-6-guanidino-hexanoic acid [2-(2,6-dimethyl-phenoxy)-1-methyl-ethyl]-amide dihydrochloride]
hNav 1.1 channel; [10]
  IC50: 624 µM
hNav 1.1 channel; hNav1.1
  IC50 fold above the parent: ~20 fold
hNav 1.1 channel; [7]
  IC50: 624 µM
hNav 1.1 channel; [8]
  IC50: 257 µM
hNav 1.1 channel; [9]
  IC50: 742 µM

## Cc1cccc(C)c1OCC(C)NC(=O)C(N)C1CC1 (centres unmarked) [Mexiletine cyclopropyl glycine amide]
hNav 1.1 channel; [7]
  IC50: 170 µM
hNav 1.1 channel; [8]
  IC50: 42.7 µM
hNav 1.1 channel; [9]
  IC50: 475 µM

## Cc1cccc(C)c1OCC(C)NC(=O)[C@@H](N)CCC(N)=O (stereo partly drawn) [Mexiletine glutamine amide, (S)-2-Amino-pentanedioic acid 5-amide 1-{[2-(2,6-dimethyl-phenoxy)-1-methyl-ethyl]-amide}hydrochloride]
hNav 1.1 channel; [7]
  IC50: 139 µM
hNav 1.1 channel; [8]
  IC50: 67.3 µM
hNav 1.1 channel; [9]
  IC50: 751 µM

## CC(C)C[C@H](CN)CC(=O)O [pregabalin]
[5]; patients treated at the higher doses (FDA labeling)
  patients with dizziness and somnolence: up to 30%

## CNCC[C@H](Oc1cccc2ccccc12)c1cccs1 [Duloxetine]
[5]; FDA labeling
  treated patients with nausea: 20-40%

## Cc1cccc(C)c1OCC(C)N.Cl (racemic) [Mexiletine hydrochloride, (rac)-1-(2,6-dimethylphenoxy)-2-propanamine hydrochloride, reference compound]
hNav 1.1 channel; [10]
  IC50: 38 µM
hNav 1.1 channel; [7]
  IC50: 38.2 µM
hNav 1.1 channel; [8]
  IC50: 9.1 µM
hNav 1.1 channel; [9]
  IC50: 115 µM
[2]
  calculated ED50, attenuation of EFS induced contractions: 2.17 µM

## Cc1cccc(C)c1OCC(C)NC(=O)[C@@H](N)CCC(=O)O.Cl (stereo partly drawn) [Mexiletine glutamic acid amide, (S)-4-Amino-4-[2-(2,6-dimethyl-phenoxy)-1-methyl-ethylcarbamoyl]-butyric acid hydrochloride]
hNav 1.1 channel; [10]
  IC50: > 1000 µM
hNav 1.1 channel; hNav1.1
  IC50 fold above the parent: ~20 fold
hNav 1.1 channel; [7]
  IC50: > 1000 µM
hNav 1.1 channel; [8]
  IC50: > 1000 µM
hNav 1.1 channel; [9]
  IC50: > 1000 µM

## Cc1cccc(C)c1OCC(C)NC(=O)C(C)CN (stereo not drawn) [Mexiletine 2-methyl β alanine amide]
hNav 1.1 channel; [7]
  IC50: 51.8 µM
hNav 1.1 channel; [8]
  IC50: 16.3 µM
hNav 1.1 channel; [9]
  IC50: 137 µM

## NCC1(CC(=O)O)CCCCC1 [gabapentin]
[6]; 900 mg/day gabapentin
  Bioavailability: approximately 60%
[6]; 1200 mg/day gabapentin
  Bioavailability: ~47%
[6]; 2400 mg/day gabapentin
  Bioavailability: ~34%
[6]; 3600 mg/day gabapentin
  Bioavailability: ~33%
[6]; 4800 mg/day gabapentin
  Bioavailability: ~27%
